Assay results taken from patent EP4667458A1 (Kanaph Therapeutics Inc., priority 2023, dated 2024).

Biological target: T1, SOS1 (Homo sapiens, UniProt Q07889)
T1 construct: adding equal amounts of HIS-SOS1cat (160 nM; Cytoskeleton, US); His; purchased Cytoskeleton, US
T1 sequence (Q07889 564-1049 limits assumed): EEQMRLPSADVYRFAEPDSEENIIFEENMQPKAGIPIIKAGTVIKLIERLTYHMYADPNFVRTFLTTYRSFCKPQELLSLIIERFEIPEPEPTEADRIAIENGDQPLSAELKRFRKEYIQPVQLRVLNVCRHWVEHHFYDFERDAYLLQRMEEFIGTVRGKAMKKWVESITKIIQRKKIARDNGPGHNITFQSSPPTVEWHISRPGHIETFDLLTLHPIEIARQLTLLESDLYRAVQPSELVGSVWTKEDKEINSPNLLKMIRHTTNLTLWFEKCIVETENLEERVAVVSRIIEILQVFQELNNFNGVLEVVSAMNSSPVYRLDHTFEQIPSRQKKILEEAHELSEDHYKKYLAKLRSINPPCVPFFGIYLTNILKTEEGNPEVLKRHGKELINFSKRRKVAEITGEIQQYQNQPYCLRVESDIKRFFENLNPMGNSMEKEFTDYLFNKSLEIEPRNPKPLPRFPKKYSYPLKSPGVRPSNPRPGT
Test: SOS-catalyzed nucleotide exchange assay (HTRF, SOS1-mediated GTP loading of KRAS G12D)
Assay type: biochemical
Settings: GST-KRAS G12D, HIS-SOS1cat, EDA-GTP-DY-647P1; compound 128 pM to 10 µM; read-out: SOS-catalyzed nucleotide exchange assay (IC50 range, Grade)
How it was run: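 SOS1cat (HIS-tagged) preincubated 10 min at room temperature with compound (128 pM-10 µM), then GST-KRAS G12D with anti-GST terbium added; GTP loading tracked as HTRF with a DY-647P1 GTP analogue after 30 min, buffer HEPES pH 7.4. GEF-free wells for normalization; IC50 derived.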

IC50 [nM]	SMILES
< 1000	CC(=O)Nc1cccc(-n2nc(C(=O)N[C@H](C)c3cc(N)cc(C(F)(F)F)c3)ccc2=O)c1 [Example 35, (R)-1-(3-acetamidophenyl)-N-(1-(3-amino-5-(trifluoromethyl)phenyl)ethyl)-6-oxo-1,6-dihydropyridazine-3-carboxamide]
1000 to 10000	C[C@@H](NC(=O)c1ccc(=O)n(-c2ccccc2)n1)c1cccc2ccccc12 [Example 9, N-[(1R)-1-(1-naphthyl)ethyl]-6-oxo-1-phenyl-pyridazine-3-carboxamide]
< 1000	COc1ccc(-n2nc(C(=O)N[C@H](C)c3cc(N)cc(C(F)(F)F)c3)ccc2=O)cc1 [Example 30, N-[(1R)-1-[3-amino-5-(trifluoromethyl)phenyl]ethyl]-1-(4-methoxyphenyl)-6-oxo-pyridazine-3-carboxamide]
< 1000	C[C@@H](NC(=O)c1ccc(=O)n(-c2ccccc2OC(F)(F)F)n1)c1cccc(C(F)(F)CO)c1F [Example 44, (R)-N-(1-(3-(1,1-difluoro-2-hydroxyethyl)-2-fluorophenyl)ethyl)-6-oxo-1-(2-(trifluoromethoxy)phenyl)-1,6-dihydropyridazine-3-carboxamide]
1000 to 10000	Cc1cc(=O)n(-c2ccccc2)nc1C(=O)N[C@H](C)c1cc(N)cc(C(F)(F)F)c1 [Example 49, N-[(1R)-1-[3-amino-5-(trifluoromethyl)phenyl]ethyl]-4-methyl-6-oxo-1-phenyl-pyridazine-3-carboxamide]
1000 to 10000	C[C@@H](NC(=O)c1ccc(=O)n(-c2cccc(NS(C)(=O)=O)c2)n1)c1cc(N)cc(C(F)(F)F)c1 [Example 34, (R)-N-(1-(3-amino-5-(trifluoromethyl)phenyl)ethyl)-1-(3-(methylsulfonamido)phenyl)-6-oxo-1,6-dihydropyridazine-3-carboxamide]
< 1000	C[C@@H](NC(=O)c1ccc(=O)n(-c2ccccc2)n1)c1cccc(Oc2ccccc2)c1 [Example 13, 6-oxo-N-[(1R)-1-(3-phenoxyphenyl)ethyl]-1-phenyl-pyridazine-3-carboxamide]
< 1000	C[C@@H](NC(=O)c1ccc(=O)n(-c2cccnc2)n1)c1cc(N)cc(C(F)(F)F)c1 [Example 26, (R)-N-(1-(3-amino-5-(trifluoromethyl)phenyl)ethyl)-6-oxo-1-(pyridin-3-yl)-1,6-dihydropyridazine-3-carboxamide]
< 1000	C[C@@H](NC(=O)c1ccc(=O)n(-c2ccccc2)n1)c1cccc(C(F)(F)CO)c1 [Example 57, N-[(1R)-1-[3-(1,1-difluoro-2-hydroxy-ethyl)phenyl]ethyl]-6-oxo-1-phenyl-pyridazine-3-carboxamide]
< 1000	C[C@@H](NC(=O)c1ccc(=O)n(-c2ccccn2)n1)c1cc(N)cc(C(F)(F)F)c1 [Example 20, N-[(1R)-1-[3-amino-5-(trifluoromethyl)phenyl]ethyl]-6-oxo-1-(2-pyridyl)pyridazine-3-carboxamide]
1000 to 10000	C[C@@H](NC(=O)c1cc(O)c(=O)n(-c2ccccc2)n1)c1cc(N)cc(C(F)(F)F)c1 [Example 48, (R)-N-(1-(3-amino-5-(trifluoromethyl)phenyl)ethyl)-5-hydroxy-6-oxo-1-phenyl-1,6-dihydropyridazine-3-carboxamide]
> 10000	CCOc1cccc([C@@H](C)NC(=O)c2ccc(=O)n(-c3ccccc3)n2)c1 [Example 60, (R)-N-(1-(3-ethoxyphenyl)ethyl)-6-oxo-1-phenyl-1,6-dihydropyridazine-3-carboxamide]
< 1000	C[C@@H](NC(=O)c1ccc(=O)n(-c2ccccc2N)n1)c1cc(N)cc(C(F)(F)F)c1 [Example 51, (R)-N-(1-(3-amino-5-(trifluoromethyl)phenyl)ethyl)-1-(2-aminophenyl)-6-oxo-1,6-dihydropyridazine-3-carboxamide]
1000 to 10000	C[C@@H](NC(=O)c1ccc(=O)n(-c2ccccc2)n1)c1cccc(C2CC2)c1 [Example 14, N-[(1R)-1-(3-cyclopropylphenyl)ethyl]-6-oxo-1-phenyl-pyridazine-3-carboxamide]
< 1000	C[C@@H](NC(=O)c1ccc(=O)n(-c2cccc(N3CCNC3=O)c2)c1)c1cc(N)cc(C(F)(F)F)c1 [Example 85, N-[(1R)-1-[3-amino-5-(trifluoromethyl)phenyl]ethyl]-6-oxo-1-[3-(2-oxoimidazolidin-1-yl)phenyl]-1,6-dihydropyridine-3-carboxamide]
< 1000	C[C@@H](NC(=O)c1ccc(=O)n(-c2ccccc2)n1)c1cccc(C(F)(F)CO)c1F [Example 59, N-[(1R)-1-[3-(1,1-difluoro-2-hydroxy-ethyl)-2-fluoro-phenyl]ethyl]-6-oxo-1-phenyl-pyridazine-3-carboxamide]
< 1000	C[C@@H](NC(=O)c1ccc(=O)n(-c2cccc(S(C)(=O)=O)c2)n1)c1cc(N)cc(C(F)(F)F)c1 [Example 37, N-[(1R)-1-[3-amino-5-(trifluoromethyl)phenyl]ethyl]-1-(3-methylsulfonylphenyl)-6-oxo-pyridazine-3-carboxamide]
< 1000	C[C@@H](NC(=O)c1ccc(=O)n(-c2cccc(C(=O)OC(C)(C)C)c2)c1)c1cc(N)cc(C(F)(F)F)c1 [Example 72, Tert-butyl 3-(5-{[(1R)-1-[3-amino-5-(trifluoromethyl)phenyl]ethyl]carbamoyl}-2-oxo-1,2-dihydropyridin-1-yl)benzoate]
< 1000	C[C@@H](NC(=O)c1ccc(=O)n(-c2ccccc2NS(C)(=O)=O)n1)c1cc(N)cc(C(F)(F)F)c1 [Example 33, N-[(1R)-1-[3-amino-5-(trifluoromethyl)phenyl]ethyl]-1-[2-(methanesulfonamido)phenyl]-6-oxo-pyridazine-3-carboxamide]
1000 to 10000	C[C@@H](NC(=O)c1ccc(=O)n(-c2ccccc2)n1)c1cccc(Br)c1 [Example 2, N-[(1R)-1-(3-bromophenyl)ethyl]-6-oxo-1-phenyl-pyridazine-3-carboxamide]
> 10000	C[C@@H](NC(=O)c1ccc(=O)n(-c2ccccc2S(C)(=O)=O)n1)c1cc(N)cc(C(F)(F)F)c1 [Example 28, (R)-N-(1-(3-amino-5-(trifluoromethyl)phenyl)ethyl)-1-(2-(methylsulfonyl)phenyl)-6-oxo-1,6-dihydropyridazine-3-carboxamide]
< 1000	CC(=O)Nc1cccc(-n2cc(C(=O)N[C@H](C)c3cc(N)cc(C(F)(F)F)c3)ccc2=O)c1 [Example 129, N-[(1R)-1-[3-amino-5-(trifluoromethyl)phenyl]ethyl]-1-(3-acetamidophenyl)-6-oxo-1,6-dihydropyridine-3-carboxamide]
< 1000	C[C@@H](NC(=O)c1cc(C#N)c(=O)n(-c2ccccc2)n1)c1cc(N)cc(C(F)(F)F)c1 [Example 56, N-[(1R)-1-[3-amino-5-(trifluoromethyl)phenyl]ethyl]-5-cyano-6-oxo-1-phenyl-pyridazine-3-carboxamide]
< 1000	C[C@@H](NC(=O)c1ccc(=O)n(-c2ccccc2OC(F)(F)F)n1)c1cc(N)cc(C(F)(F)F)c1 [Example 45, N-[(1R)-1-[3-amino-5-(trifluoromethyl)phenyl]ethyl]-6-oxo-1-[2-(trifluoromethoxy)phenyl]pyridazine-3-carboxamide]

SMILES	IC50 [nM]
C[C@@H](NC(=O)c1ccc(=O)n(-c2ccccc2)n1)c1cccc([Si](C)(C)C)c1 [Example 61, 6-oxo-1-phenyl-N-[(1R)-1-(3-trimethylsilylphenyl)ethyl]pyridazine-3-carboxamide]	1000 to 10000
